Legend:
BSA [1] = molecular target: T1, BSA (Bos taurus, UniProt P02769); assay: Cannabis smoke/vapor passed through BSA/water/ethanol solution, cannabinoid profile (Example 1d); format: binding, bovine; settings: 33% ethanol, 48 hours incubation, washed
Description: (§1) To show which cannabinoid compounds are solubilized in processes using BSA versus organic solvents, cannabis from two different batches was smoked and or vaporized. Vapor was formed using a “volcano” vaporizer at a temperature of 210° C. The smoke/vapor was passed through either a BSA/water/ethanol solution described in example 1b, comprising 33% by volume ethanol or through a pure ethanol (99% ethanol) solution. Solutions were stirred using a magnetic stirrer and were incubated for 48 hours, during which time, most of the ethanol evaporated. One of the batches of cannabis was high in THC, and the other batch of cannabis was high in both THC and CBD.
The BSA/water/ethanol solution was washed after smoke or vapor was combined with it, and the amount of cannabinoids present was analyzed. The results of the comparison of relative concentration of cannabinoids (relative to total cannabinoid content) as expressed in percent (weight/weight), for a strain of cannabis high in THC are shown in the table below.

[2] = Cannabis smoke/vapor passed through pure ethanol, cannabinoid profile (Example 1d); format: physicochemical; settings: for relative concentration of cannabinoids (relative to total cannabinoid content), Vapor passed through ethanol: vapor at 210° C.
Description: as §1

[3] = 3 g high THC strain; 200 ml ethanol concentrated to about 3 ml
albumin (BSA) = albumin (BSA) (Bos taurus, UniProt P02769); assay: Ethanolic cannabinoid solution mixed with aqueous albumin, protein-bound cannabinoid quantified (Example 2b); format: binding, bovine; set-up: protein-bound cannabinoid quantified, Vapor: unit not given beside the values; settings: 100 microliters ethanolic solution + 500 microliters 5 mg/ml BSA, 30° C., 12 hours, non-adsorbed cannabinoids separated
Sequence of albumin (BSA) (P02769 25-607): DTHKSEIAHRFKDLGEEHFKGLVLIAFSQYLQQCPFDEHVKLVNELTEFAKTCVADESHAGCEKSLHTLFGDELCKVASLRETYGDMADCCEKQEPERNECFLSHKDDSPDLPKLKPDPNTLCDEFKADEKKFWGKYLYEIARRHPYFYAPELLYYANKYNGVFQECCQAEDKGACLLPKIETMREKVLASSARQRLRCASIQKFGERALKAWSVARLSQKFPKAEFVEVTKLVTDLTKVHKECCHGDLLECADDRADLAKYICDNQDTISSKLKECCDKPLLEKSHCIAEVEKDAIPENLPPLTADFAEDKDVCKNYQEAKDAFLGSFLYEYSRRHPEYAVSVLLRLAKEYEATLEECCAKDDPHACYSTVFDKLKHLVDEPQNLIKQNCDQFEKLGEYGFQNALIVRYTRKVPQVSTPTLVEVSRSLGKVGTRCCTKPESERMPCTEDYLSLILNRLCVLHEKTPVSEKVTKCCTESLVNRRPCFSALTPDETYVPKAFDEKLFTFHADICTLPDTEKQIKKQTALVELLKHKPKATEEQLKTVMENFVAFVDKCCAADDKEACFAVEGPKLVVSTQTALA
Description: 100 microliters of ethanolic cannabinoid solution from cannabis vapor and cannabis smoke were each mixed with 500 microliters of aqueous albumin solution that had been prepared at a concentration of 5 mg albumin (BSA)/ml. The aqueous albumin solution combined with the ethanolic cannabinoid solution was incubated at 30° C. for 12 hours in open tubes. After 12 hours, the tubes were mixed and centrifuged, and non-adsorbed cannabinoids were separated from the solution. Concentrated protein-bound cannabinoid was dried and quantified as described below.

bovine γ-globulin = assay: Cannabis vapor streamed through protein solution, cannabinoids adsorbed (Example 1f); format: binding; settings: vapor of cannabis high in CBD; 1 mg/ml protein, ethanol:water 1:2, 30° C., 24 hours
Description: (§2) The protein solutions were formed using ethanol and water in a 1:2 ratio. The solutions were incubated at 30° C. for 24 hours.

[4] = molecular target: T2, rice recombinant human serum albumin (HSA) (Homo sapiens, UniProt P02768); assay: as above; format: binding; settings: vapor of cannabis high in CBD; 1 mg/ml protein, ethanol:water 1:2, 30° C., 24 hours
T2 construct: host or cells: rice (recombinant expression host)
T2 sequence (P02768 25-609): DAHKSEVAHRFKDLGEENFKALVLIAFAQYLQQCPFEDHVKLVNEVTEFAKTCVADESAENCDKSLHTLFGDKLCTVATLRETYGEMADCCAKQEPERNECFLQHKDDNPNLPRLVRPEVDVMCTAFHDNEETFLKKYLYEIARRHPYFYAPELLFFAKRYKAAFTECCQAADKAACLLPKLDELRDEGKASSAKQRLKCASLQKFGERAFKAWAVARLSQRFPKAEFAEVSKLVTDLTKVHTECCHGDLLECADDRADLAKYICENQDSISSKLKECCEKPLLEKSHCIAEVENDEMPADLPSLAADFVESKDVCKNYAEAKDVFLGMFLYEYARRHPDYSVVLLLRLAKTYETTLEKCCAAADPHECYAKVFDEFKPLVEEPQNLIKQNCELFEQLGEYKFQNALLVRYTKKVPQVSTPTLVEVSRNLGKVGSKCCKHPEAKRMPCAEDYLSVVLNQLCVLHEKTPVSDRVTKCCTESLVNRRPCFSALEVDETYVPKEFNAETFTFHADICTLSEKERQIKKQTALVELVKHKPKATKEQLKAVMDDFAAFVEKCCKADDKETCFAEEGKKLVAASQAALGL
Description: as §2

ovalbumin (hen) = molecular target: T3, ovalbumin (hen) (Gallus gallus, UniProt P01012); assay: as above; format: binding; settings: vapor of cannabis high in CBD; for percentage of each cannabinoid relative to total cannabinoids adsorbed to protein, Ovalbumin: 1 mg/ml protein, ethanol:water 1:2, 30° C., 24 hours
T3 sequence (P01012 1-386): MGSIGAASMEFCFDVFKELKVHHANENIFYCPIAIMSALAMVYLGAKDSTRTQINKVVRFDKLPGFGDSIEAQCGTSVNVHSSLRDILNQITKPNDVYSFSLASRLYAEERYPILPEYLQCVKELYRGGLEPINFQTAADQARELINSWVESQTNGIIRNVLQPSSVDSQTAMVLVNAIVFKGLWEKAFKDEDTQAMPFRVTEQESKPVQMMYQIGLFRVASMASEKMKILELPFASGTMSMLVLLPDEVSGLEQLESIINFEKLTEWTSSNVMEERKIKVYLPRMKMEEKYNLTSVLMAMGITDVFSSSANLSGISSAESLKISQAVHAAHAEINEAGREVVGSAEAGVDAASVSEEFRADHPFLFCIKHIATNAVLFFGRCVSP
Description: as §2

BSA [5] = molecular target: T1, BSA; assay: Cannabis extract combined with albumin solution, cannabinoids adsorbed to BSA (Example 2a); format: binding, bovine; settings: albumin solution 10 mg/ml (BSA) with 20% ethanol, 2 hours at room temperature
Description: (§3) Cannabis extract was prepared as follows: In short, cannabis plant matter is dried, ground and homogenized to form ground cannabis. The ground cannabis is extracted with methanol/chloroform (volume/volume ratio of 9:1). Sonication and filtration is then performed. Identity of cannabinoids is determined by HPLC by evaporation, dissolution in an appropriate solvent.
(§4) Drying of the cannabis plant matter occurs under high vacuum at about 37±2° C. for about 24 hours and then ground to form a fine powder. 200 mg of ground powder is combined with 10 ml of methanol/chloroform, and sonicated in an ice bath for 30 minutes at maximum power. The supernatant is then filtered through a 0.2 micron filter.
(§5) A sample of the cannabis extract was analyzed for content of cannabinoids. The cannabis extract was then combined with albumin solution having 20% ethanol at 10 mg/ml (BSA) and incubated for 2 hours at room temperature.

[6] = Cannabinoid content of cannabis extract (Example 2a); format: physicochemical; settings: methanol/chloroform 9:1 cannabis extract
Description: as §3, §4, §5

[7] = strain of cannabis high in CBD and THC

T1 sequence (P02769 25-607): as the sequence (P02769 25-607) above

Molecule	relative concentration of cannabinoids (relative to total cannabinoid content), Smoke passed through BSA/water/ethanol (BSA [1]; [7])	relative concentration of cannabinoids (relative to total cannabinoid content), Vapor passed through BSA/water/ethanol (BSA [1]; [7])	relative concentration of cannabinoids (relative to total cannabinoid content), Smoke passed through BSA/water/ethanol (BSA [1]; strain of cannabis high in THC)	relative concentration of cannabinoids (relative to total cannabinoid content), Smoke passed through ethanol [2, 7]	relative concentration of cannabinoids (relative to total cannabinoid content), Vapor passed through ethanol [2, 7]	relative concentration of cannabinoids (relative to total cannabinoid content), Smoke passed through ethanol ([2]; strain of cannabis high in THC)	relative concentration of cannabinoids (relative to total cannabinoid content), Vapor passed through ethanol ([2]; strain of cannabis high in THC)	amount of cannabinoids dissolved in ethanol, Smoke [3]	amount of cannabinoids dissolved in ethanol, Vapor [3]	protein-bound cannabinoid quantified, Smoke (albumin (BSA))	protein-bound cannabinoid quantified, Vapor (albumin (BSA))	percentage of each cannabinoid relative to total cannabinoids adsorbed to protein, Bovine γ-globulin (bovine γ-globulin)	percentage of each cannabinoid relative to total cannabinoids adsorbed to protein, Rice recombinant HSA [4]	percentage of each cannabinoid relative to total cannabinoids adsorbed to protein, Ovalbumin (ovalbumin (hen))	percentage of each cannabinoid relative to total cannabinoids adsorbed to protein, Adsorbed to BSA after extract combined with BSA solution (BSA [5])	percentage of each cannabinoid relative to total cannabinoids, Extract [6]	cannabinoid adsorbed per mg of protein (ovalbumin (hen); 1 mg/ml ovalbumin)
CCCCCc1cc(O)c2c(c1)OC(C)(C)[C@@H]1CC=C(C)C[C@@H]21 [DELTA-8-THC]	0.0 percent (weight/weight)	0.0 percent (weight/weight)	0.0 percent (weight/weight)	0.0 percent (weight/weight)	0.0 percent (weight/weight)	0.0 percent (weight/weight)	0.0 percent (weight/weight)	0 micrograms/ml	0 micrograms/ml	0	4.6	–	–	–	–	–	–
C=C(C)[C@@H]1CCC(C)=C[C@H]1c1c(O)cc(CCCCC)cc1O [CBD, cannabidiol, reference compound]	22.3 percent (weight/weight)	33.4 percent (weight/weight)	0.0 percent (weight/weight)	44.7 percent (weight/weight)	51.1 percent (weight/weight)	1.9 percent (weight/weight)	0.3 percent (weight/weight)	0 micrograms/ml	17.2726 micrograms/ml	0	0	0 percentage	33 percentage	55.9 percentage	0 percentage	0 percentage	–
CCCCCc1cc(O)c(C/C=C(\C)CCC=C(C)C)c(O)c1C(=O)O [CBGA, cannabigerolic acid]	0.0 percent (weight/weight)	0.0 percent (weight/weight)	0.0 percent (weight/weight)	0.4 percent (weight/weight)	0.0 percent (weight/weight)	0.6 percent (weight/weight)	0.1 percent (weight/weight)	23.088 micrograms/ml	28.7668 micrograms/ml	0.58	1.43	0 percentage	0 percentage	0 percentage	2 percentage	3 percentage	–
CCCc1cc(O)c2c(c1)OC(C)(C)[C@@H]1CCC(C)=C[C@@H]21 [THCV, tetrahydrocannabivarin]	0.0 percent (weight/weight)	0.0 percent (weight/weight)	0.0 percent (weight/weight)	2.4 percent (weight/weight)	0.8 percent (weight/weight)	2.4 percent (weight/weight)	0.7 percent (weight/weight)	–	–	–	–	–	–	–	–	–	–
ovalbumin: ovalbumin (hen) (protein, UniProt P01012 2-386, looked up) Ovalbumin: GSIGAASMEFCFDVFKELKVHHANENIFYCPIAIMSALAMVYLGAKDSTRTQINKVVRFDKLPGFGDSIEAQCGTSVNVHSSLRDILNQITKPNDVYSFSLASRLYAEERYPILPEYLQCVKELYRGGLEPINFQTAADQARELINSWVESQTNGIIRNVLQPSSVDSQTAMVLVNAIVFKGLWEKAFKDEDTQAMPFRVTEQESKPVQMMYQIGLFRVASMASEKMKILELPFASGTMSMLVLLPDEVSGLEQLESIINFEKLTEWTSSNVMEERKIKVYLPRMKMEEKYNLTSVLMAMGITDVFSSSANLSGISSAESLKISQAVHAAHAEINEAGREVVGSAEAGVDAASVSEEFRADHPFLFCIKHIATNAVLFFGRCVSP	–	–	–	–	–	–	–	–	–	–	–	–	–	–	–	–	about 4 micrograms of cannabinoid per mg of protein

From US12161723B2, “Water-based cannabinoid and opioid compositions” (DAY THREE LABS MAN[…]., priority 2014, dated 2024)
